Assay results reported in patent US5484778A, “Phthalocyanine photosensitizers for photodynamic therapy and methods for their use” (priority 1993, dated 1996).
Entries after “also recorded” stand apart in the source; their conditions may differ.

Columns and labels:
V79 cells [1] = assay: Clonogenicity, killing of V79 cells using photodynamic therapy (Table 3); type: cell-based, Chinese hamster
Description: Using the cell culture methods described above, V79 cells Chinese hamster lung fibroblasts were treated with either 0.5 or 1.0 μM of the phthalocyanines listed in Table 3. About 18 hours thereafter, the cells were irradiated with increasing doses of 675 nm broad band red light from a 500 W tungsten-halogen lamp fitted with a 600 nm high pass filter, to determine the light dosage that would kill 90% of the phthalocyanine treated cells. Where 90% of the cells were not killed, the maximum percent of cells killed were determined, (expressed as % survival) and the related light dosage recorded.

RIF-1 tumors = assay: PDT of RIF-1 implanted tumors (Table 7); type: in vivo, C3H/HeN mice; conditions: for effect on tumor volume / growth (in words): 1 mg/kg
Description: The relative effectiveness at reducing tumor volume of selected phthalocyanine compounds at a given dosage was compared in vivo. RIF-1, i.e., radiation-induced fibrosarcoma, tumors were implanted into the backs of C3H/HeN mice. One tumor was implanted per mouse. Each of the phthalocyanine compounds listed in Table 7 was sonicated and vortexed in corn oil to produce a suspension. When the tumors reached […] in diameter and 2-3 mm in thickness, each mouse received 1 mg/kg in 0.1 ml of the corn oil, of the phthalocyanine suspension. For comparison, select mice received a conventional photosensitizer; either 5 mg/kg of chloroaluminum phthalocyanine tetrasulfonate, herein also referred to as "AlPcTS" in phosphate buffered saline or 5 mg/kg of Photofrin®-II in 5% dextrose. Twenty-four hours after the photosensitizers were administered, the tumors were irradiated with visible radiation delivered by an argon-pumped dye laser. The mice that received a phthalocyanine photosensitizer received light having a wavelength of 675 nm and the mice that received the Photofrin® II photosensitizer received light having a wavelength of 630 nm. Each tumor received 135 J/cm^2 of radiation. Tumor size was measured every day using calipers. The initial tumor volume was 50±10 mm^3. Tumor volume was calculated according to the hemiellipsoid model by the formula: [formula] Where l is length Where W is width

L5178Y-R (LY-R) cells = assay: Clonogenic survival of PDT-treated L5178Y-R cells (Tables 4 and 5, FIG. 3); type: cell-based, mouse; conditions: 0.5 μM
Description: (§1) Mouse lymphoma L5178y-R (hereinafter also referred to as "LY-R") cells were grown in suspension culture as described in Ramakrishnan N., Oleinick, N. L. Clay, M. E., Horng, M. F., Antunez, A. R., and Evans H. H., DNA lesions and DNA degradation in mouse lymphoma L5178Y cells after photodynamic treatment sensitized by chloroaluminum phthalocyanine. Photochem. Photobiol. 50, 373-378, 1989 and Agarwal, M. L., Clay, M. E., Harvey, E. J., Evans, H. H., Antunez, A. R., and Oleinick, N. L. Photodynamic therapy induces rapid cell death by apoptosis in L5178Y mouse lymphoma cells. Cancer Res., 51, 5993-5996, 1991.
(§2) The cells were used while in exponential growth. Stock solutions of either 0.5 or 1 mM of PcIV, PcXII, PcX, PcXVIII were prepared in dimethylformamide unless otherwise indicated and added to the 10 mL medium at a rate of 1 μL per mL. After allowing 18 hours for uptake of the phthalocyanine into the cells, the flasks containing the cultures were placed on a glass exposure tray above a 500-W tungsten-halogen lamp. The exposure tray was fitted with a 600-nm high-pass filter. Flasks were exposed to various fluences of red light (up to 30 kJ/m^2) at a fluence rate of approximately 74 W/m^2). After irradiation, the cells were collected by centrifugation.
(§3) For measurement of clonogenic cell survival, aliquots were plated in medium containing soft agar as described in Ramakrishnan N., Oleinick, N. L. Clay, M. E., Horng, M. F., Antunez, A. R., and Evans H. H., DNA lesions and DNA degradation in mouse lymphoma L5178Y cells after photodynamic treatment sensitized by chloroaluminum phthalocyanine. Photochem. Photobiol. 50, 373-378, 1989. The aliquots were plated in sufficient numbers to produce 50-200 colonies. The dishes were kept in an incubator at 37° C. in an atmosphere of 5% CO2 and 95% air for 10-14 days to allow viable cells to form colonies. Colonies were counted by eye. Controls treated with the phthalocyanine alone had plating efficiencies of ~90%. The plating efficiencies of the treated cells are normalized to the plating efficiencies of control cells in each experiment. For measurement of the induction of apoptosis, DNA was isolated from the treated and control cells 2 hours after photodynamic therapy, subjected to electrophoresis on 1.5% agarose, stained with ethidium bromide, and visualized by UV transillumination, as described in Agarwal et. al. The results are shown in Tables 4, 5 and 6 and in FIG. 3.
In Table 4 each phthalocyanine was present at 0.5 μM, and the normalized plating efficiencies are presented as mean and standard deviation at each fluence tested. […] This relative activity of these four phthalocyanines is the same as obtained from screening in V79 cells.
PcXII when present in the culture medium at 0.5 μM requires less light, that is the lowest fluence, to kill either 50% […] of the cells. PcIV is about 80% as active as PcXII, PcX is 44% as active as PcXII and PcXVIII is 22% as active as PcXII.

L5178Y cells = assay: Induction of apoptosis (DNA fragmentation) in L5178Y-R cells (Table 6); type: cell-based, mouse; conditions: 0.4 μM
Description: as §1, §2, §3
Cells were treated with various concentrations of the compounds listed in the table and various light fluences. DNA gels were prepared and examined for the characteristic "ladder" pattern of DNA fragments. For each Pc, the minimum total PDT dose tested (calculated as the product of the minimum phthalocyanine concentration and the minimum fluence) which produced visible DNA fragments is recorded. […] PcXVIII was also added at 0.5 and 1.0 μM.

V79 cells [2] = test system: V79 cells
Description: V79 cells Chinese hamster lung fibroblasts were cultured using the cell culture methods described above. […] When the filters were dry, the phthalocyanines were extracted into ethanol and the absorption determined at the peak wavelength, usually 668 nm.

[3] = test system: Chinese hamster V79-379 cells; assay: Growth delay of V79 cultures after red light (Table 1); type: cell-based; conditions: for Growth Delay, efficiency relative to 1 μM AlPcCl: 18 h, 12 kJ/m^2 red light
Description: (§4) Chinese hamster V79-379 lung fibroblasts were grown in monolayer culture in McCoy's 5A medium (Gibco Laboratories, Grand Island, N.Y.) augmented with 10% calf serum and buffered with 20 mM HEPES (pH 7.4).
(§5) The cells were treated with 1 μM AlPcCl (from Eastman Kodak, Rochester, N.Y.) or with phthalocyanine compositions I-VI (0.5-1.0 μM final concentration in the medium) for 18 hours by adding the appropriate volume of a 1.0 mM stock solution in dimethylformamide (DMF) to the culture medium. The growth medium was replaced with 4 ml Hank's balanced salt solution (HBSS), and the cells were irradiated. The light source was a 500 W tungsten-halogen lamp located approximately 29 inches below the surface of a glass exposure tray. The visible light administered to the cells was filtered to allow passage of only that portion of the visible spectrum above 600 nm (Lee Primary red filter No. 106, Vincent Lighting, Cleveland, Ohio). The fluence rate was approximately 0.074 kJ/m^2 /s at the level of the cell monolayer.
At the time of light exposure, there were approximately 1.5×10^5 cells per 25 cm^2 flask. Following irradiation, the HBSS was replaced by 10 ml of fresh complete growth medium, and the cultures were returned to the 37° C. incubator. At various times before and after irradiation, duplicate cultures were trypsinized and counted. Controls included untreated cells and cells treated with light alone or drug alone. In addition, in each experiment, the drug to be tested was compared to a standard treatment, i.e. 1 μM AlPcCl for 18 hours followed by 12 kJ/m^2 light.
The inhibition of V79 culture growth was measured during a three day period following red light irradiation (12 kJ/m^2) of phthalocyanine-pretreated cells. With each of the active compounds, as well as with AlPcCl, there was an initial decrease in cell density, as dead cells became detached from the monolayer. Thereafter, the cell number per flask increased, as living cells grew and divided. The time for the cell density to recover to the level at the time of light exposure was considered the growth delay. […] The ratio of the growth delay for the test photosensitizer and the growth delay for AlPcCl measured in the same experiment is recorded in Table 1.

[4] = test system: Chinese hamster V79-379 cells; assay: Uptake of phthalocyanines by V79 cells relative to AlPcCl (Table 1); type: cell-based
Description: as §4
Total uptake was determined by scraping the phthalocyanine-treated monolayer, collecting the cells on a glass-fiber filter, and extracting the phthalocyanine in ethanol, as previously described by Ramakrishnan, et al., 1989. (Ramakrishnan, N., M. E. Clay, M. F. Horng, A. R. Antunez, & H. H. Evans, "DNA Lesions and DNA Degradation in Mouse Lymphoma L5178Y Cells After Photodynamic Treatment Sensitized by Chloroaluminum Phthalocyanine",Photochem. Photobiol, in press, 1989). The amount of drug was determined by absorption at 674 nm and expressed relative to the number of cells, as measured in a Coulter cell counter on an aliquot of the cell population. Controls included cells not treated with drug, medium alone, and drug-containing medium without cells. The results of the total uptake of the various compositions of the present invention in comparison to AlPcCl are set forth below in Table 1.
as §5
All of the compounds have been examined for the extent of cellular uptake after exposure of V79 cells to 1 μM or less in complete medium, and the data of Table 1 are presented relative to the uptake from 1 μM AlPcCl, which was 0.723±0.172 nmole/10^7 cells (mean ±S. D., 25 determinations). […] In particular, when the concentration of Compound IV was 1 μM in the medium, the uptake into the cells was sufficiently high that some of the uptake and phototoxicity studies were repeated at 0.5 μM.

[5] = test system: Chinese hamster V79-379 cells; assay: Clonogenic cell survival / photocytotoxicity in V79 cells (Table 1, FIG. 1, FIG. 2); type: cell-based; conditions: for CF10 (AlPcCl)/CF10 (Pc) / F10 (AlPcCl)/F10 (Pc): 1.0 μM, 18 h; for CF10 (AlPcCl)/CF10 (Pc): CF10 = intracellular concentration x fluence reducing survival to 10%; for F10 (AlPcCl)/F10 (Pc): F10 = fluence reducing survival to 10%
Description: FIG. 1 is a graph illustrating the photodynamic efficacy of the various compositions of the present invention in comparison to AlPcCl. The phthalocyanine composition compounds of the present invention were tested for their photodynamic efficiency against Chinese hamster fibroblast V79 cells by colony formation. Monolayer cultures were treated with the indicated phthalocyanine composition for 18 hours, irradiated with various fluences of red light, and immediately trypsinized and replated at appropriate aliquots in triplicate. Colonies of at least 50 cells were counted after 7-10 days. The plating efficiency of the untreated cells was approximately 90%.
In this regard, in FIG. 2 the data of FIG. 1 were replotted as a function of the product of the amount of cell-associated phthalocyanine and the light fluence.
as §4, §5
Cells were irradiated at a density of approximately 2×10^6 per 25 cm^2 flask. Immediately after irradiation, the cell monolayer was treated with trypsin, and appropriate aliquots were plated in triplicate to give 100 to 200 colonies in each 10-cm Petri dish. Cell survival was determined by the ability of the cells to form colonies containing at least 50 cells. The response of cells treated with 1 μM AlPcCl and light was compared in each experiment.
Photocytotoxicity of the phthalocyanines compounds I to VI was also assessed by clonogenic assay (Table 1, FIG. 1). In all experiments, 1 μM AlPcCl was included for comparison purposes. From the survival curves (FIG. 1), the fluence reducing the cell survival to 10% (F10) was obtained. The ratio of the F10 for AlPcCl and the F10 for the test compound is recorded in Table 1.
In order to take differences in cellular uptake into consideration in the assessment of the relative efficiency of these phthalocyanines as photosensitizers of V79 cells, the survival data were replotted against the product of intracellular phthalocyanine concentration and light fluence (FIG. 2). From these curves, the product of intracellular concentration and light fluence reducing survival to 10% (CF10) was obtained, and comparisons of the values for AlPcCl and the test compounds are recorded in Table 1.

SMILES | LD 90 (V79 cells [1]; 0.5 μM, 18 h, light dose killing 90% of cells) [kJ/m^2] | photosensitizing activity, killing V79 cells (in words) (V79 cells [1]; discussion of Table 3) | Doubling Time of Initial Tumor Volume after PDT (RIF-1 tumors; 1 mg/kg in corn oil, 675 nm, 135 J/cm^2) [days] | effect on tumor volume / growth (in words) (RIF-1 tumors; listed as Pc XII) | effect on tumor volume / growth (in words) (RIF-1 tumors; listed as PcXII) | LD 90 (L5178Y-R (LY-R) cells; fluence reducing survival to 10%) [kJ/m^2] | LD50 (L5178Y-R (LY-R) cells; fluence reducing survival to 50%) [kJ/m^2] | photosensitizer activity in LY-R cells (in words) (L5178Y-R (LY-R) cells; listed as PcXII) | Minimum Demonstrated Condition to induce apoptosis: C × F (L5178Y cells) [μm × kJ/m^2] | Minimum Demonstrated Condition to induce apoptosis: Fluence (L5178Y cells) [kJ/m^2] | Uptake (from Table 2) (V79 cells [2]) [n Moles/10^6 cells/μM] | Uptake into V79 cells, composite value (V79 cells [2]) [n Moles/10^6 cells/μM] | uptake by V79 cells (in words) (V79 cells [2]) | growth delay ([3]; 1 μM for 18 hours and 12 kJ/m^2 light) | Growth Delay, efficiency relative to 1 μM AlPcCl [3] | uptake from 1 μM AlPcCl [4] [nmole/10^7 cells] | CF10 (AlPcCl)/CF10 (Pc) [5] | F10 (AlPcCl)/F10 (Pc) [5] | inhibition of V79 culture growth (in words) ([3]; red light 12 kJ/m^2, three day period) | photosensitizing efficiency / photocytotoxicity (in words) [5]
CN(C)CCC[Si](C)(C)O[Si]1(O[Si](C)(C)CCCN(C)C)n2c3c4ccccc4c2N=C2N=C(N=c4c5ccccc5c(n41)=NC1=NC(=N3)c3ccccc31)c1ccccc12 [Compound XII, SiPc[OSi(CH3)2 (CH2)3 N(CH3)2]2] | 3.3 | most active at killing V79 cells | 20 | significantly impair the growth of the tumors | particularly effective in reducing tumor volume | 1.70 | 1.11 | active photosensitizers; also recorded: most active compound of the phthalocyanines shown in Table 5 | 1.2 | 3.0 | 1.6 | 1.6 | taken up particulary well | – | – | – | – | – | – | –
[Cl][Al]1[n]2c3c4ccccc4c2N=C2N=C(N=c4c5ccccc5c([n]41)=NC1=NC(=N3)c3ccccc31)c1ccccc12 [AlPcCl, chloroaluminum phthalocyanine, reference compound] | – | – | – | – | – | – | – | – | – | – | – | – | – | approximately 24 hours | 1.0 | 0.723±0.172 | 1.0 | 1.0 | – | –
C[N+](C)(C)CCC[Si](C)(C)[O][Al-2]123[n]4c5c6ccccc6c4N=c4c6ccccc6c([n]41)=NC1=[N+]2C(=NC2=[N+]3C(=N5)c3ccccc32)c2ccccc21.I [Compound II, AlPcOSi(CH3)2 (CH2)3 N(CH3)3^+ I^-] | – | – | – | – | – | – | – | – | – | – | – | – | – | – | 3.4 | – | 0.72 | 0.99 | substantial inhibition | nearly as efficient photosensitizers as AlPcCl
